{"source": "patent US6379713B1", "about": "“Method of treating an itch with iodine” (priority 2001, dated 2002)", "key": {"itch": {"test_system": "itch", "details": "cited from earlier work; for time necessary to stop the immediate itch: topical application"}, "itching skin": {"test_system": "itching skin", "experiment": "rubbing iodine condensate on cotton fiber against itching skin", "assay_type": "in vivo, mammal", "method": "A concentration of iodine in the range of 0.01 to 2 mg/inch^2 of skin surface is found to provide analgesia. An applicator useful for carrying and discharging the analgesic element, in its amorphous form, has been made by loading cotton fiber over a bed of hard iodine crystals sitting at the bottom of a fuming chamber. The bottom of the fiber stack is placed in contact to the top of the iodine bed. By warming the crystals, the reservoir fiber is charged with a fine, soft, rising tan colored sublimate of the hard crystal. At a temperature of 35.deg.C., 2 days is sufficient to charge a fiber with sublimated iodine in a range, by weight, of 1 to 30 mg/g of the wipe fiber. The charged fiber has a tan color, appearing as of having been dipped in liquid iodophor and then dried. Individual crystals of iodine are not readily observed and the charged wipe feels softer than the original fiber. On dipping the charged fiber in water, its tan coloration disappears.\nItching skin is found to be efficiently treated by rubbing the cotton fiber coated with condensed iodine against the itch.\nThe skin is not irritated by treatment from a wipe preferably comprising about 10 mg of condensate per gram of fiber comprising cotton. […] A preferred treatment supplies about 0.05 to 1 mg/inch^2 of skin. An iodine concentration of over 2 mg/inch^2 of skin begins to cause pain, while still relieving the itch."}}}
{"smiles": "CCOC(=O)c1ccc(N)cc1", "note": "[benzocaine]", "values": [{"measurement": "time necessary to stop the immediate itch", "setting": "itch", "result": "≤ 5", "unit": "min"}]}
{"smiles": "II", "note": "[iodine]", "values": [{"measurement": "time to relief from an itch after application", "setting": "itching skin; amorphous tan condensate, single treatment", "result": "≤ 1", "unit": "min"}, {"measurement": "time to relieve the urge to scratch after application", "setting": "itching skin; cotton fiber coated with condensed iodine, rubbed in forceful back and forth motion", "result": "within three minutes"}, {"measurement": "iodine concentration on skin that begins to cause pain", "setting": "itching skin; while still relieving the itch", "result": "over 2 mg/inch^2"}, {"measurement": "skin irritation", "setting": "itching skin; wipe with about 10 mg of condensate per gram of cotton fiber", "result": "not irritated"}]}
{"smiles": "CC(=O)OCC(=O)[C@@]1(O)CC[C@H]2[C@@H]3CCC4=CC(=O)CC[C@]4(C)[C@H]3[C@@H](O)C[C@@]21C", "note": "[hydrocortisone acetate]", "values": [{"measurement": "time necessary to stop the immediate itch", "setting": "itch", "result": "about 15 minutes"}]}
{"smiles": "CN(C)CCOC(c1ccccc1)c1ccccc1", "note": "[diphenhydramine]", "values": [{"measurement": "time necessary to stop the immediate itch", "setting": "itch", "result": "about 15 minutes"}]}
{"smiles": "COC1=CC(=O)C[C@@H](C)[C@]12Oc1c(Cl)c(OC)cc(OC)c1C2=O", "note": "[griseofulvin]", "values": [{"measurement": "time necessary to stop the immediate itch (time to disinfect)", "setting": "itch; antibiotic composition", "result": "several days"}]}
